According to patent US10757937B2, “Sulfonamides that activate ABA receptors” (The Regents of the University of California, priority 2014, dated 2020):
Where two headings read alike, the source gives them in different places.

How the values were obtained:
[1] = tested on: Arabidopsis seed germination and hypocotyl growth; test: Arabidopsis seed germination and hypocotyl growth; assay type: in vivo; details: − = none; for Hypocotyl Growth Inhibition / Germination Inhibition: Germination Inhibition II, tested at 10 and 50 uM; for Hypocotyl Growth Inhibition: lowest concentration that inhibited hypocotyl growth in wells where seeds germinated; for minimal effective concentration: Table VIII, tested at 10 or 50 μM, lowest inhibiting concentration; for Germination Inhibition: lowest of the two concentrations that inhibited
Description: We germinated seeds from wild type on ½× strength Murashige and Skoog salts growth medium containing either 10 or 50 μM for all 62 compounds as well as 1 μM (+)-ABA and mock controls. […] To investigate if the any of the compounds are sufficient to control vegetative ABA responses, we treated three week old Arabidopsis plants with aqueous solutions containing 0.02% Silwet and either 50 μM of selected N-acylsulfonamides, 50 μM ABA or 0.1% DMSO (the carrier solvent for the compounds tested). The leaf temperatures were subsequently examined using a thermal imaging camera 24 hours after treatment. It is well known that ABA-induced guard cell closure reduces transpiration, which leads to increases in leaf temperatures. It has been estimated that a 1° C. increase in leaf temperature correlates with a decrease in transpiration rates by approximately 50% (Sirault et al., 2009). Since guard cell aperture is the primary determinant of transpiration rates, thermal imaging is a useful way to indirectly infer relative transpiration rates and, indirectly, relative degrees of guard cell opening at the whole plant level.
(§1) Additional compounds were tested for biological activity following the procedures of Example 1 with minor modifications.
For the germination inhibition experiment, the compounds were tested at 10 and 50 uM. The amounts shown are the lowest of the two concentrations that either inhibited germination or hypocotyl growth in wells where seeds germinated.
For the germination test, the compounds were tested at 1, 5, 10, 25 and 50 uM. The amounts shown are the lowest of the concentrations that either inhibited germination or hypocotyl growth in the wells where seeds germinated.

[2] = target: T1, PYL4 (Arabidopsis thaliana, UniProt O80920); test: receptor-mediated PP2C (HAB1) inhibition in vitro assay; assay type: biochemical; details: compound at 25 μM; control without agonist = 100%
T1 construct: 6X-His; made in house; host or cells: E. coli BL21[DE3]pLysS
T1 sequence (O80920 1-207): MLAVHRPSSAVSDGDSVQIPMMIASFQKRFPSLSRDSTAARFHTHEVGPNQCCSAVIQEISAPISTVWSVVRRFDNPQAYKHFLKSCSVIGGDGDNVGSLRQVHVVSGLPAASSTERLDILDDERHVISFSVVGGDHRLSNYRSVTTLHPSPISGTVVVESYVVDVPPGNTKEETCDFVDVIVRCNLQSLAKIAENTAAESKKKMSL
T1 sequence (Q9CAJ0 23-511 partner): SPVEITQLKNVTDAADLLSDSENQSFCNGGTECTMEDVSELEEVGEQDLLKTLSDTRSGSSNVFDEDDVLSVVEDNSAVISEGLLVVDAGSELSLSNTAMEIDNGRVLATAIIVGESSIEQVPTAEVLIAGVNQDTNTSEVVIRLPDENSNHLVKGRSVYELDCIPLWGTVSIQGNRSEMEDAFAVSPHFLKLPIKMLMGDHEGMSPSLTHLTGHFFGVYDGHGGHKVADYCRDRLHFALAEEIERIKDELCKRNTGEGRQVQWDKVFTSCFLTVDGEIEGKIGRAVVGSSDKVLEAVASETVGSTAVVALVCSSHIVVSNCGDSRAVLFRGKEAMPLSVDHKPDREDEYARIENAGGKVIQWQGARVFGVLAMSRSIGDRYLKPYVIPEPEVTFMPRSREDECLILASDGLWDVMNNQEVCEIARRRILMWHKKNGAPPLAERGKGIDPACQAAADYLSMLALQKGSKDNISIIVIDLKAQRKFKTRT
Description: (§2) A family of 62 structurally related N-acyl sulfonamides (Tables I-V) were tested for ABA agonist activity using multiple receptor-mediated PP2C inhibition in vitro assays (Park et al., 2009). […] The constructs utilized for protein expression have been previously described (Okamoto et al. 2013). For constructs encoding 6X-His-fusion proteins (all receptors except PYL11), the coding sequences were of the receptors were cloned in the vector pET28, expressed in BL21[DE3]pLysS E. coli host cells at 18° C. overnight, and subsequently purified from sonicated lysates using Ni-NTA agarose (Qiagen, USA), according to the manufacturer's instructions. PYL11 was constructed as a maltose binding protein fusion in the vector pMAL-c, expressed in BL21┌DE3┐pLysS host cells and purified using amylose resin (New England Biolabs) as described by the manufacturer. Recombinant GST-HAB1 was expressed and purified as described previously (Park et al., 2009). PP2C activity assays were conducted using the fluorogenic phosphatase substrate 4-methylumbelliferyl-phosphate. Recombinant receptors and HAB1 were used to examine ligand-induced PP2C inactivation in response to multiple test compounds. Enzyme inhibition assays were conducted using the following assay conditions: 50 nM GST-PP2C, 100 mM Tris-OAc (pH 7.9), 100 mM NaCl, 1 mM MnCl2, 1% β-mercaptoethanol. […] Because of this, the ratio of each receptor used in the PP2C-inhibitions assays was established empirically as the minimum fold-excess of receptor required to elicit maximal PP2C inhibition at a saturating ABA concentration (10 μM).
(§3) Based on this criterion, we used a ratio of 2:1 receptor in the assays described herein.
(§4) Using the above assay conditions, compounds were tested at 25 μM for agonist activity on PYL4, PYL5, PYL8 and PYL9. […] Consequently, a subset of the compounds was tested at multiple concentrations against 11 receptors so that IC50 values and receptor selectivity profiles could be examined. […] Thus, the N-acylsulfonamide agonists disclosed are selective for monomeric receptors.
as §1
(§5) For these in vitro receptor assays, the compounds listed were tested in in vitro PP2C inhibition assays with 50 uM of the test compound except for ABA (10 uM). IC50s were calculated from dose curves, but only for selected compounds.

[3] = target: T2, PYL8 (Arabidopsis thaliana, UniProt Q9FGM1); test: as above; assay type: biochemical; details: compound at 25 μM; control without agonist = 100%
T2 construct: 6X-His; made in house; host or cells: E. coli BL21[DE3]pLysS
T2 sequence (Q9FGM1 1-188): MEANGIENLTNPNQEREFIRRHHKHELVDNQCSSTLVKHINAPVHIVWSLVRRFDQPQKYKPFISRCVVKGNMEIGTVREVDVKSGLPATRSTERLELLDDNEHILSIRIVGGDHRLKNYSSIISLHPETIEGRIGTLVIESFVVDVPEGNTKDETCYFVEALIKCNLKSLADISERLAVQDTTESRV
T2 sequence (Q9CAJ0 23-511 partner): T1 sequence (Q9CAJ0 23-511 partner)
Description: as §2, §3, §4, §1, §5

[4] = target: T3, PYL9 (Arabidopsis thaliana, UniProt Q84MC7); test: as above; assay type: biochemical; details: compound at 25 μM; control without agonist = 100%
T3 construct: 6X-His; made in house; host or cells: E. coli BL21[DE3]pLysS
T3 sequence (Q84MC7 1-187): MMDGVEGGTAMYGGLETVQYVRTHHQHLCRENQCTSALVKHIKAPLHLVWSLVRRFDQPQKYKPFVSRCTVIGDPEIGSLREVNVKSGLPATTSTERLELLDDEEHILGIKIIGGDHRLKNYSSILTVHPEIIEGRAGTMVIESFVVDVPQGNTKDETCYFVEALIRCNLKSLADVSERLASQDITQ
T3 sequence (Q9CAJ0 23-511 partner): T1 sequence (Q9CAJ0 23-511 partner)
Description: as §2, §3, §4, §1, §5

[5] = target: T4, PYL5 (Arabidopsis thaliana, UniProt Q9FLB1); test: as above; assay type: biochemical; details: compound at 25 μM; control without agonist = 100%
T4 construct: 6X-His; made in house; host or cells: E. coli BL21[DE3]pLysS
T4 sequence (Q9FLB1 1-203): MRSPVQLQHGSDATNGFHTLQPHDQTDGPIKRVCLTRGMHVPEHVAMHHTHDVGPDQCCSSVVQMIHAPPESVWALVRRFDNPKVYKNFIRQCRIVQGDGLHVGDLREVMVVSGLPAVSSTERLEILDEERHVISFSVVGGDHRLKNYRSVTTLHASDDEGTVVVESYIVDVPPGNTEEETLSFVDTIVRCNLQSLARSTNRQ
T4 sequence (Q9CAJ0 23-511 partner): T1 sequence (Q9CAJ0 23-511 partner)
Description: as §2, §3, §4, §1, §5

[6] = read-out: Hypocotyl Growth Inhibition
[7] = ABA at 1 μM, read-out: Germination Inhibition

| SMILES | PP2C Activity (25 μm) PYL4 [2] [%] | PP2C Activity (25 μm) PYL8 [3] [%] | PP2C Activity (25 μm) PYL9 [4] [%] | PP2C Activity (25 μm) PYL5 [5] [%] | remaining activity at 25 µM [2] [%] | remaining activity at 25 µM [3] [%] | remaining activity at 25 µM [4] [%] | remaining activity at 25 µM [5] [%] | Hypocotyl Growth Inhibition [1] [µM] | minimal effective concentration [1, 6] [µM] | Germination Inhibition [1] [µM] | minimal effective concentration [1, 7] [µM] | minimal effective concentration ([1]; Arabidopsis thaliana, read-out: Hypocotyl Growth Inhibition) [µM] |
| --- | --- | --- | --- | --- | --- | --- | --- | --- | --- | --- | --- | --- | --- |
| Cc1cccc(C2(C(=O)NS(=O)(=O)Cc3ccc(C#N)cc3)CC2)c1 [Compound 38] | 92 | 77 | 66 | 41 | – | – | – | – | 50 | 50 | – | – | – |
| CC(C)(C(=O)NS(=O)(=O)Cc1ccc(C#N)cc1)c1ccc(Br)cc1 [Compound 2] | 89 | 69 | 47 | 23 | – | – | – | – | 10 | 10 | 50 | 50 | – |
| N#Cc1ccc(CS(=O)(=O)NC(=O)C2(c3cccc(F)c3)CCC2)cc1 [Compound 33] | 98 | 39 | 24 | 81 | – | – | – | – | 10 | 10 | – | – | – |
| N#Cc1ccc(CS(=O)(=O)NC(=O)C2(c3ccccc3)CC2)cc1 [Compound 27] | 97 | 77 | 63 | 39 | – | – | – | – | 50 | 50 | – | – | – |
| CC(C)(C(=O)NS(=O)(=O)Cc1ccc(C#N)cc1)c1ccccc1F [Compound 8] | 91 | 77 | 69 | 41 | – | – | – | – | 10 | 10 | 50 | 50 | – |
| CC(C)(C)c1ccc(C2(C(=O)NS(=O)(=O)Cc3ccc(C#N)cc3)CC2)cc1 [Compound 34] | 95 | 103 | 107 | 99 | – | – | – | – | – | – | 50 | 50 | – |
| CC(C)(C(=O)NS(=O)(=O)Cc1ccccc1C#N)c1ccccc1 [Compound 1] | 96 | 89 | 83 | 106 | – | – | – | – | 50 | 50 | – | – | – |
| CC(C)(C(=O)NS(=O)(=O)Cc1ccc(C#N)cc1)c1cccc(Br)c1 [Compound 9] | 91 | 58 | 47 | 43 | – | – | – | – | 10 | 10 | – | – | – |
| CC(C)(C(=O)NS(=O)(=O)Cc1ccc(F)cc1)c1ccccc1 [Compound 4] | 97 | 59 | 36 | 106 | – | – | – | – | 50 | 50 | – | – | – |
| COc1ccccc1C1(C(=O)NS(=O)(=O)Cc2ccc(C#N)cc2)CC1 [Compound 41] | 93 | 89 | 81 | 27 | – | – | – | – | 10 | 10 | – | – | – |

Now from value to compound, other results behind:

| PP2C Activity (25 μm) PYL4 [2] [%] | PP2C Activity (25 μm) PYL8 [3] [%] | PP2C Activity (25 μm) PYL9 [4] [%] | PP2C Activity (25 μm) PYL5 [5] [%] | remaining activity at 25 µM [2] [%] | remaining activity at 25 µM [3] [%] | remaining activity at 25 µM [4] [%] | remaining activity at 25 µM [5] [%] | SMILES | Hypocotyl Growth Inhibition [1] [µM] | minimal effective concentration [1, 6] [µM] | Germination Inhibition [1] [µM] | minimal effective concentration [1, 7] [µM] | minimal effective concentration ([1]; Arabidopsis thaliana, read-out: Hypocotyl Growth Inhibition) [µM] |
| --- | --- | --- | --- | --- | --- | --- | --- | --- | --- | --- | --- | --- | --- |
| 95 | 91 | 92 | 85 | – | – | – | – | COc1ccc(C(C)(C)C(=O)NS(=O)(=O)Cc2ccc(C#N)cc2)cc1 [Compound 22] | 10 | 10 | – | – | – |
| 89 | 99 | 98 | 95 | – | – | – | – | CC(C)(C(=O)NS(=O)(=O)Cc1ccc(C#N)cc1)c1ccc2c(c1)OCCO2 [Compound 53] | 50 | 50 | – | – | – |
| 96 | 57 | 46 | 51 | – | – | – | – | CC(C)(C(=O)NS(=O)(=O)Cc1ccc(C#N)cc1)c1cccc(Cl)c1 [Compound 15] | 10 | 10 | – | – | – |
| 93 | 83 | 73 | 75 | – | – | – | – | CCC(CC)(C(=O)NS(=O)(=O)Cc1ccc(C#N)cc1)c1ccc(Cl)cc1 [Compound 10] | 50 | 50 | – | – | – |
| 85 | 95 | 94 | 96 | – | – | – | – | CCC(CC)(C(=O)NS(=O)(=O)Cc1ccccc1C#N)c1ccccc1 [Compound 17] | 50 | 50 | – | – | – |
| – | – | – | – | 91 | 75 | 68 | 16 | CC1(C(=O)NS(=O)(=O)Cc2ccc(C#N)cc2)CCCc2ccccc21 (stereo not shown) [Compound 61] | 50 | – | – | – | 50 |
